Measurements: publication PMC8950706, “Influence of Substitutions in the Binding Motif of Proline-Rich Antimicrobial Peptide ARV-1502 on 70S Ribosome Binding and Antimicrobial Activity” (International Journal of Molecular Sciences, 2022)
Converted amounts (≈) assume the structure as drawn. Marks after values point to notes of the source that are not given here. Square brackets hold non-standard residues; d marks the D form. Ends that are not written are not given here. Peptide text beside a SMILES is read from it. Ac6c = NC1(C(=O)O)CCCCC1

Columns and labels:
E. coli 70S ribosome [1] = assay: Competitive FP binding screening assay with Cf-ARV-1502 (relative FP); design: species or system E. coli BW25113; conditions: for Ribosome Binding (%): competitive ribosome binding against Cf-ARV-1502 (relative FP; values match 1.2 µmol/L peptide), low value = strong competition; for Inhibition of Cf-ARV-1502 binding to the 70S ribosome (in words): Figure 3: peptide concentration 1.2 µmol/L
Experimental: E. coli 70S ribosomes were prepared using a previously described protocol that was slightly modified. Briefly, E. coli BW25113 was cultivated in Luria-Bertani (LB) medium and cells were harvested after reaching an optical density of ~4 at 600 nm by centrifugation (5000× g, 15 min, 4 °C, Rotor JLA 8.100, Avanti J-20 XP, Beckmann Coulter, Krefeld, Germany). The cell pellets were frozen and stored at −80 °C. Cells were resuspended in ribosome buffer (2 mL/g cells; 20 mmol/L HEPES-KOH, 6 mmol/L MgCl2, 30 mmol/L NH4Cl, 4 mmol/L 2-mercaptoethanol, pH 7.6). Lysozyme (0.25 g/L cell suspension) was added, and the mixture was incubated on ice for 30 min. Cells were disrupted using the bead mill homogenizer FastPrep-24™ 5G (40 s, 4 m/s, 6 cycles, MP Biomedicals Germany GmbH, Eschwege, Germany) and zirconia/silica beads (0.1 mm diameter). The lysate was centrifuged (1500× g, 5 min, 4 °C, Rotor S4180, Allegra 21R, Beckmann Coulter) and the supernatant was incubated with DNase (5 U/mL) on ice for 60 min. The cell debris was removed by two centrifugation steps (16,000× g, 30 min, 4 °C followed by 32,000× g, 60 min, 4 °C, Rotor JA 30.50 Ti, Avanti J-30I, Beckmann Coulter). The ribosome was pelleted by ultracentrifugation (165,000× g, 17 h, 4 °C, Rotor 70 Ti, Optima LE-80K, Beckmann Coulter), resuspended in ribosome buffer (0.1 mL/g pellet), and stored at −80 °C. The ribosome concentration was determined by recording the absorbance of RNA at 260 nm (NanoPhotometer NP80, Implen GmbH, München, Germany) assuming that 1 AU corresponds to a ribosome concentration of 28 nmol/L. The molecular weight of the E. coli 70S ribosome was assumed to be 2.3 MDa.
E. coli 70S ribosomes and Cf-ARV-1502 were incubated with four different concentrations of unlabeled peptides chosen based on the IC50 curves of reference peptide ARV-1502. Each peptide was diluted in ribosome buffer to obtain a concentration of 4.8 µmol/L and transferred to a 384-well-plate. Peptides were then twofold serially diluted in four steps from 4.8 to 0.6 µmol/L (20 µL). The ribosome extract was diluted in ribosome buffer to reach a concentration of 2 µmol/L and 10 µL were added to each well to obtain a final ribosome concentration of 0.5 µmol/L. Plates were centrifuged (2 min, 500× g, Rotor S2096, Allegra^TM 21R, Beckmann Coulter) and incubated at 28 °C for 90 min. Cf-labeled ARV-1502 was added (10 µL; final concentration of 20 nmol/L) and the plates were again centrifuged and incubated (28 °C, 90 min). After incubation, fluorescence polarization was recorded on a […]^TM microplate reader (λex = 485 nm, λem = 535 nm).
On each plate 12 minimum (30 µL ribosome buffer and 10 µL Cf-ARV-1502) and 12 maximum (20 µL ribosome buffer, 10 µL ribosome solution and 10 µL Cf-ARV-1502) control samples were added. Fluorescence polarization of screening samples was normalized to the fluorescence polarization of these control samples. All screening samples were measured in triplicates and the whole experiment was repeated once on another day.

[2] = tested on: E. coli BW25113 ∆sbmA ∆mdtM; assay type: cell-based, Escherichia coli; conditions: ∆sbmA ∆mdtM compared with ∆sbmA
Experimental: (§1) MIC values were determined using a liquid broth micro dilution assay in sterile 96-well plates (polystyrene F-bottom, Greiner Bio-One GmbH) and a total volume of 100 μL per well. Aqueous peptide solutions (10 g/L) were serially twofold diluted in 25% Mueller-Hinton broth 2 (25% MBH2) or 33% tryptic soy broth (33% TSB) starting at a peptide concentration of 128 mg/L (50 μL/well). Overnight cultures of bacteria grown in 25% MHB2 (or 33% TSB) were diluted 30-fold in 25% MHB2 (or 33% TSB). After an incubation period of 4 h (37 °C, 200 rpm), cells were diluted to 1.5 × 10^7 cfu/mL, based on a McFarland test, and 50 μL were added to each well (final concentration of 7.5 × 10^6 […]). The plates were incubated (37 °C, 20 h) and the optical density was recorded at 595 nm using a microplate reader ([…]^TM, Beckmann Coulter). The MIC was defined as the lowest peptide concentration preventing visible bacterial growth.

E. coli BW25113 = assay: MIC, liquid broth micro dilution, wild type; assay type: cell-based, Escherichia coli; conditions: for Minimal Inhibitory Concentration, 25% MHB2, wt / Minimal Inhibitory Concentration, 33% TSB, wt: BW25113, 20 h
Experimental: as §1

E. coli 70S ribosome [3] = assay: Cell-free GFP expression assay (in vitro translation); assay type: biochemical; conditions: for In Vitro Translation (%): GFP expression remaining relative to control, concentration not given (higher concentration 50 µmol/L); for Reduction of GFP expression, 50 µmol/L peptide: cell-free expression, peptide-to-ribosome ratio of 25, GFP fluorescence, 37 °C
Description: Possible effects of ARV-1502 and its substituted analogs on the in vitro translation of the green fluorescent protein (GFP) were probed using the NEB PureExpress Delta RF123 Kit (New England Biolabs, Ipswich, MA, USA). The sfGFP DNA template was amplified from pY71sfGFP plasmid by PCR introducing an UAA stop codon. Release factor 1 (RF1) was 50fold diluted in Pure System Buffer (PSB) containing magnesium acetate (1 mol/L), monopotassium phosphate (0.5 mol/L, pH 7.3), potassium glutamate (1 mol/L), NH4Cl (1 mol/L), calcium chloride (0.5 mol/L), spermidine (1 mol/L), putrescine (0.1 mol/L), and DTT (0.1 mol/L). Each reaction used 35 ng of sfGFP template. Peptides were added at a final concentration of 5 µmol/L and 50 µmol/L. The reaction was started by adding Kit solutions A (2 µL) and B (1.5 µL), diluted RF1 (0.5 µL), sfGFP template (0.25 µL or water as negative control), PSB (0.25 µL), and peptide (0.5 µL or water), mixed, transferred into a black 384-well plate (flat bottom, Greiner Bio-One GmbH), and incubated (37 °C, 2 h). The fluorescence was recorded every 10 min (λexc = 485 nm, λem = 535 nm) in a microplate reader (Gemini EM, Molecular Devices LLC, San Jose, CA, USA).

Row | Compound | Ribosome Binding (%) (E. coli 70S ribosome [1]) | Effect of the additional mdtM knockout on antibacterial activity [2] | MIC (µg/mL), Table 3 (E. coli BW25113; BW25113, 4 h) | Minimal Inhibitory Concentration, 25% MHB2, wt (E. coli BW25113) | Minimal Inhibitory Concentration, 33% TSB, wt (E. coli BW25113) | In Vitro Translation (%) (E. coli 70S ribosome [3]) | Reduction of GFP expression, 50 µmol/L peptide (E. coli 70S ribosome [3]) | MIC / activity against E. coli (E. coli BW25113; BW25113, 4 h) | Inhibition of Cf-ARV-1502 binding to the 70S ribosome (in words) (E. coli 70S ribosome [1]) | MIC / activity against E. coli (E. coli BW25113; medium not given)
1 | CC(C)C[C@H](NC(=O)[C@H](Cc1ccc(O)cc1)NC(=O)[C@@H]1CCCN1C(=O)[C@H](CCCNC(=N)N)NC(=O)[C@@H]1CCCN1C(=O)[C@H](CO)NC(=O)[C@H](CCCCN)NC(=O)[C@@H]1CCCN1C(=O)[C@H](CCCNC(=N)N)NC(=O)C1(N)CCCCC1)C(=O)N1CCC[C@H]1C(=O)N[C@@H](CCCNC(=N)N)C(=O)N1CCC[C@H]1C(=O)N[C@@H](CCCNC(=N)N)C(=O)N1CCC[C@H]1C(=O)N1CCC[C@H]1C(=O)N[C@@H](CCCNC(=N)N)C(=O)N1CCC[C@H]1C(=O)N[C@H](C(=O)N[C@@H](CCCNC(=N)N)C(N)=O)C(C)C [Peptide 29] (H-[Ac6c]RPKSPRPYLPRPRPPRPVR-NH2; N-terminus and C-terminus assumed) | 78.5 ± 3.3% | no effect | 16 µg/mL (≈ 6.54 µM) | 16 µg/mL | 32 µg/mL | 74.3 ± 10.1% | ~ 25% | – | – | –
2 | CC(C)C[C@H](NC(=O)[C@H](Cc1ccc(O)cc1)NC(=O)[C@@H]1CCCN1C(=O)[C@H](CCCNC(=N)N)NC(=O)[C@@H]1CCCN1C(=O)[C@H](CCCCN)NC(=O)[C@H](CCCCN)NC(=O)[C@@H]1CCCN1C(=O)[C@H](CCCNC(=N)N)NC(=O)C1(N)CCCCC1)C(=O)N1CCC[C@H]1C(=O)N[C@@H](Cc1ccccc1)C(=O)N1CCC[C@H]1C(=O)N[C@@H](CCCNC(=N)N)C(=O)N1CCC[C@H]1C(=O)N1CCC[C@H]1C(=O)N[C@@H](CCCNC(=N)N)C(=O)N1CCC[C@H]1C(=O)N[C@H](C(=O)N[C@@H](CCCNC(=N)N)C(N)=O)C(C)C [Peptide 46] (H-[Ac6c]RPKKPRPYLPFPRPPRPVR-NH2; N-terminus and C-terminus assumed) | 87.1 ± 3.4% | – | – | 16 µg/mL | 64 * µg/mL | 96.6 ± 3.1% | did not inhibit GFP expression | 16 µg/mL (≈ 6.45 µM) | – | –
3 | CC(C)[C@H](NC(=O)[C@@H]1CCCN1C(=O)[C@H](CCCNC(=N)N)NC(=O)[C@@H]1CCCN1C(=O)[C@@H]1CCCN1C(=O)[C@H](CCCNC(=N)N)NC(=O)[C@@H]1CCCN1C(=O)[C@H](CCCNC(=N)N)NC(=O)[C@@H]1CCCN1C(=O)[C@H](CCCCN)NC(=O)[C@H](Cc1ccc(O)cc1)NC(=O)[C@@H]1CCCN1C(=O)[C@H](CCCNC(=N)N)NC(=O)[C@@H]1CCCN1C(=O)[C@H](CCCCN)NC(=O)[C@H](CCCCN)NC(=O)[C@@H]1CCCN1C(=O)[C@H](CCCNC(=N)N)NC(=O)C1(N)CCCCC1)C(=O)N[C@@H](CCCNC(=N)N)C(N)=O [Peptide 37] (H-[Ac6c]RPKKPRPYKPRPRPPRPVR-NH2; N-terminus and C-terminus assumed) | 56.7 ± 2.6% | – | 16 µg/mL (≈ 6.39 µM) | 16 µg/mL | 64 µg/mL | 63.4 ± 13.3% | ~ 40% | – | – | –
4 | CC(C)C[C@H](NC(=O)[C@H](Cc1ccc(O)cc1)NC(=O)[C@@H]1CCCN1C(=O)[C@H](CCCNC(=N)N)NC(=O)[C@@H]1CCCN1C(=O)[C@H](Cc1ccccc1)NC(=O)[C@H](Cc1ccccc1)NC(=O)[C@@H]1CCCN1C(=O)[C@H](CCCNC(=N)N)NC(=O)C1(N)CCCCC1)C(=O)N[C@@H](CCCCN)C(=O)N[C@@H](CCCNC(=N)N)C(=O)N1CCC[C@H]1C(=O)N[C@@H](CCCNC(=N)N)C(=O)N1CCC[C@H]1C(=O)N1CCC[C@H]1C(=O)N[C@@H](CCCNC(=N)N)C(=O)N1CCC[C@H]1C(=O)N[C@H](C(=O)N[C@@H](CCCNC(=N)N)C(N)=O)C(C)C [Peptide 98] (H-[Ac6c]RPFFPRPYLKRPRPPRPVR-NH2; N-terminus and C-terminus assumed) | 98.3 ± 1.5% | – | 8 to 16 µg/mL | 8 to 16 µg/mL | 32 µg/mL | 56.2 ± 2.1% | – | – | poor competitor of Cf-ARV-1502 | –
5 | 6: Chex-RPDDPRPYLPRPRPPRPVR-NH2 ([Ac6c]RPDDPRPYLPRPRPPRPVR-NH2; N-terminus assumed; SMILES CC(C)C[C@H](NC(=O)[C@H](Cc1ccc(O)cc1)NC(=O)[C@@H]1CCCN1C(=O)[C@H](CCCNC(=N)N)NC(=O)[C@@H]1CCCN1C(=O)[C@H](CC(=O)O)NC(=O)[C@H](CC(=O)O)NC(=O)[C@@H]1CCCN1C(=O)[C@H](CCCNC(=N)N)NC(=O)C1(N)CCCCC1)C(=O)N1CCC[C@H]1C(=O)N[C@@H](CCCNC(=N)N)C(=O)N1CCC[C@H]1C(=O)N[C@@H](CCCNC(=N)N)C(=O)N1CCC[C@H]1C(=O)N1CCC[C@H]1C(=O)N[C@@H](CCCNC(=N)N)C(=O)N1CCC[C@H]1C(=O)N[C@H](C(=O)N[C@@H](CCCNC(=N)N)C(N)=O)C(C)C) [Peptide 6] | – | – | – | – | – | – | – | – | inhibited Cf-ARV-1502 | low activity against E. coli
6 | CC(C)[C@H](NC(=O)[C@@H]1CCCN1C(=O)[C@H](CCCNC(=N)N)NC(=O)[C@@H]1CCCN1C(=O)[C@@H]1CCCN1C(=O)[C@H](CCCNC(=N)N)NC(=O)[C@@H]1CCCN1C(=O)[C@H](CCCNC(=N)N)NC(=O)[C@@H]1CCCN1C(=O)[C@H](CCCCN)NC(=O)[C@H](CO)NC(=O)[C@@H]1CCCN1C(=O)[C@H](CCCNC(=N)N)NC(=O)[C@@H]1CCCN1C(=O)[C@H](CCCCN)NC(=O)[C@H](CC(=O)O)NC(=O)[C@@H]1CCCN1C(=O)[C@H](CCCNC(=N)N)NC(=O)C1(N)CCCCC1)C(=O)N[C@@H](CCCNC(=N)N)C(N)=O [Peptide 125] (H-[Ac6c]RPDKPRPSKPRPRPPRPVR-NH2; N-terminus and C-terminus assumed) | 86.3 ± 2.5% | – | 128 µg/mL (≈ 53 µM) | 128 µg/mL | – | 104.3 ± 9.3% | slightly improved GFP translation | – | – | –
